Measured values reported in patent US12239729B2, “TRPV3 agonists for the treatment of skin conditions” (Soricimed Biopharma Inc., priority 2012, dated 2025).
“Also recorded” adds a separate entry of the source. Peptide text beside a SMILES is read from it.

How the values were obtained:
[1] = test system: HaCaT cells; test: Cell death assay in HaCaT cells with SOR-C13 fragments (Example 5); type: cell-based, human
Method: Solutions of each of the peptides listed in Table 2 were made based on formulation weight without correction of purity in PBS at a 100 mM stock concentration. Stock solutions were sterilized by passing through a 0.2 μm syringe filter prewashed with PBS. Stocks of peptides were kept in aliquots at −20° C. during the study. Glycolic acid was made in a 5M stock in PBS and filtered using a 0.2 μm syringe filter and kept at −20° C.
Human immortalized keratinocyte HaCaT cells were cultured as described in Example 3.
HaCaT cells were plated at ˜8×10^5/well in each well of the 12-well tissue culture plates in triplicates in 2 ml culture media. Twenty-four (24) hours post-plating, cells were treated with PBS, or peptide stocks at 100 and 1000 μM (in triplicates), or glycolic acid at 20 mM (single data point). The Cell Death Assay was otherwise performed as described in Example 3.

[2] = test system: HaCaT cells; test: Cell death assay in HaCaT keratinocytes (Example 3); type: cell-based, human
Method: In an initial experiment, various concentrations of SOR-C13 and SOR-C27 were tested on human keratinocytes (HaCaT cells) for their ability to cause cell death. The negative control was Phosphate Buffered Saline (PBS) and the positive control was Glycolic Acid (20 mM), a known activator of TRPV3. At the concentrations used (10, 100 and 1000 μM) only the 1000 μM concentration produced a statistically significant increase in cell death over PBS (FIG. 6). […] The two peptides appeared to be indistinguishable in their activity with respect to the number of dead cells
Both peptides were dissolved in PBS at 30 mM concentration at ambient temperature based on the peptide content with a correction factor (SOR-C13 concentration was multiplied by 1.19, while SOR-C27 concentration was multiplied by 1.29). Stock solutions were sterilized by passing through a 0.2 μm syringe filter prewashed with PBS. Stocks of peptides were kept at −20° C. during the study.
Human immortalized keratinocyte HaCaT cells (Cat. #T0020001) were from Addexbio Technologies (San Diego, California, USA). In general, HaCaT cells were cultured in 37° C. CO2 incubator in DEME with 1.0 g/L glucose (Lonza, Cat #12-707F) with 10% FBS. Glutamine (2 mM), penicillin (100 I.U.) and streptomycin (100 μg/ml) were added to the media. Cells were sub-cultured twice per week using Trypsin-0.25% EDTA to detach cells.
HaCaT cells were plated at ˜8×10^5/well in each well of the 12-well tissue culture plates in triplicates in 2 ml culture media. Twenty-four (24) hours post-plating, cells were treated with PBS, or SOR-C13 at 10, 100 and 1000 μM, or SOR-C27 at 10, 100 and 1000 μM, or glycolic acid at 20 mM.
At 72 hours post-treatment, the incubation was terminated and supernatant was collected. Attached cells were washed with 2 ml PBS, and trypsinized. Suspension of cells was combined with supernatant and spun at 1000 g for 5 minutes. The cell pellet was then resuspended in 100 μl PBS for cell counting using trypan blue exclusion.
Student's t-test was used to compare the group treated with a test article vs. the group treated with PBS. Standard errors of mean (SEM) were used to represent variation of data.

[3] = target: T1, TRPV3 channels expressed in HEK-293 cells (Homo sapiens, UniProt Q8NET8); test: Patch-clamp testing of TRPV3 channel activity in transfected HEK-293 cells; type: cell-based
T1 construct: expressed in transfected cells; host or cells: HEK-293 cells, transient transfection
T1 sequence (Q8NET8 1-790): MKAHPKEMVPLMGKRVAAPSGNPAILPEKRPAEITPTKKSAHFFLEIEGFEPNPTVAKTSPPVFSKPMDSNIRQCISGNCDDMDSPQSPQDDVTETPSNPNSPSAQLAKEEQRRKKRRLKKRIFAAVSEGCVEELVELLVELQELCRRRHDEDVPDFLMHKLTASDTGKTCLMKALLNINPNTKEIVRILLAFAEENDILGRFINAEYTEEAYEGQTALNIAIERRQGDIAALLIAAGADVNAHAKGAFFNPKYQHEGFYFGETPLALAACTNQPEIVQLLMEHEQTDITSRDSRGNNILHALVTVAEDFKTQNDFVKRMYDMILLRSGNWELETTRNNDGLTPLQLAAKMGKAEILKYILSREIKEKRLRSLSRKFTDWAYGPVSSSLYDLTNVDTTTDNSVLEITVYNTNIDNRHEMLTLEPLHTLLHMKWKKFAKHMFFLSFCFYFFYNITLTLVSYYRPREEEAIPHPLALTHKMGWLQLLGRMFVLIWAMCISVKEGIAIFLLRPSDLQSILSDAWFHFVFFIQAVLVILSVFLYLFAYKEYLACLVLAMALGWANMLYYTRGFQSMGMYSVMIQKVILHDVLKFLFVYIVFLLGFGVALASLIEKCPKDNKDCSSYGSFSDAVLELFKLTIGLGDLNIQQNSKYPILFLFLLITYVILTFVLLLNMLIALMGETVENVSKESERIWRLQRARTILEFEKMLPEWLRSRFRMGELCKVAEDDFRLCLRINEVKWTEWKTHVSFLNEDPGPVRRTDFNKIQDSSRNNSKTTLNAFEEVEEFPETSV
Method: SOR-C13, SOR-C27 and SOR-N54 were tested using a patch clamp screen to determine whether the peptide had any effect on the channel activity of TRPV3. Ruthenium red, a known antagonist of TRPV3 and 2-Aminoethoxydiphenyl Borate (2-APB) a known activator of TRPV3 were used as controls.
HEK 293 cells were maintained in ϕ30 mm cell culture plate in DMEM media supplemented with 10% fetal bovine serum and penicillin/streptomycin. Cells were grown in a humidified atmosphere of 95% air/5% CO2 at 37° C. in a cell culture incubator.
The cells from 70-90% confluence were prepared for transfection. For transient expression in HEK-293 cells 1 μg plasmid cDNA and pEGFP (in vivo reporter of gene expression) were used.
Recordings were performed at 20˜23° C. Currents were sampled using Digidata 1440A, amplified, and filtered at 2 kHz using Axopatch 200B, then acquired and analyzed using pClamp 10.0 (Molecular Devices, Sunny vales, CA, USA).
The pipette solution and bath solution contained 140 mM CsCl, 4 mM MgCl2, 10 mM EGTA, CsOH pH=7.3 and 130 mM NaCl, 5 mM KCl, 2 mM CaCl2), 1 mM MgCl2, 25 mM HEPES, 30 mM Glucose, pH=7.3, respectively.
Each peptide was diluted in the bath solution to the desired concentration (0.01 μM, 0.03 μM, 0.1 μM, 0.3 μM, 1 μM, 3 μM, or 10 μM), respectively.

[4] = test system: HaCaT cells; test: Wound healing (scratch gap closure) assay in HaCaT cells (Example 4); type: cell-based, human; conditions: 24 hours; for effect on migration of HaCaT cells through the scratch (words): 100 μM
Method: SOR-C13 and SOR-C27 were tested for their ability to promote tissue repair in a human keratinocytes (HaCaT) model of wound healing. In this model, cells are grown to confluency and then a gap is made in the sheet of cells by scratching the surface of the cells. After treating the cells for 24 hours, the closure of the gap, and the state of the cells in terms of polarization and mobility into the gap, are measured as a surrogate for activation of the wound healing response and the proliferation and/or migration of cells involved in tissue repair.
HaCaT cells were plated at 4×10^5 per well in 12-well tissue culture plates in MEGM Bullet Kit (Lonza, Cat. #CC-3150) containing bovine pituitary extracts (BPE), hEGF, insulin, and hydrocortisone. The total volume was 2 ml. About 24 hours later, a gap at the bottom of each well was generated by scratching with a sterile pipette tip. The supernatant was aspirated and cells were washed gently once with PBS. Fresh media (MEGM Bullet Kit, 2 ml) was added after the wash. Cells were treated in duplicates with PBS, or SOR-C13 at 10, 100 and 1000 μM, or SOR-C27 at 10, 100 and 1000 μM, and 100 μM valproic acid. After 24 hours, each well was examined under the microscope to semi-quantify the gap closure by cell migration. A digital camera fixed to the microscope was used to capture images of cells.
Under visual inspection, the wound healing results was scored as: • “−”: minimal cell polarization toward wound, no initiation of cell protrusion into the gap; no change in the wound gap; • “+”: cell polarization toward wound was observed; cell protrusion was observed; cell migration started but gap size is between 75 to 100% of original wound gap; • “++”: cell polarization toward the wound was observed; cell protrusion was observed; cell migration across the gap was observed, and gap size ≤½ of original wound gap; • “+++”: cell polarization toward wound was observed; cell protrusion was observed; cell migration across the gap was observed, and gap size ≤⅓ of original wound gap. Results

Compound: HPSKVDLPR [SOR-C9]
- induction of cell death (words) ([1]; 100 μM, 72 hours, p<0.05): slight but significant increase of cell death
- induction of cell death (words) ([1]; 100 μM, 72 hours, p<0.05, listed as C9): significant cell death induction

Compound: O=C(O)CO [Glycolic acid, reference compound]
- induction of cell death (words) ([2]; 20 mM, 72 hours): dramatically induced cell death
- number of dead cells ([2]; 20 mM, 72 hours): ~9.1×10^4 per well
- number of dead cells ([1]; 20 mM, 72-hour treatment, single data point): ~4.5×10^4 per well
- induction of cell death above PBS ([1]; 20 mM, 72 hours): no increase in cell death above the PBS treatment

Compound: SOR-N54: full length soricidin peptide, fifty-four amino acid paralytic peptide (DCSQDCAACSILARPAELNTETCILECEGKLSSNDTEGGLCKEFLHPSKVDLPR; Soricidin; UniProt P0C2P6 1-54, looked up)
- effect on TRPV3 channel activity / activation of TRPV3 by 2-APB ([3]; 10 μM peptide in the presence of 100 μM 2-APB): did not show any effect; also recorded: did not alter the activation of TRPV3

Compound: SKVDLPR [SOR-C7]
- induction of cell death (words) ([1]; 100 μM, 72 hours, p<0.05): slight but significant increase of cell death
- induction of cell death (words) ([1]; 100 μM, 72 hours, p<0.05, listed as C7): significant cell death induction
- induction of cell death (words) ([1]; 1000 μM, 72 hours, p<0.05): slight but significant increase of cell death

Compound: CC(C)C[C@H](NC(=O)CNC(=O)CNC(=O)[C@H](CCC(=O)O)NC(=O)[C@@H](NC(=O)[C@H](CC(=O)O)NC(=O)[C@H](CC(N)=O)NC(=O)[C@H](CO)NC(=O)[C@H](CO)NC(=O)[C@H](CC(C)C)NC(=O)[C@H](CCCCN)NC(=O)CNC(=O)[C@@H](N)CCC(=O)O)[C@@H](C)O)C(=O)N[C@@H](CS)C(=O)N[C@@H](CCCCN)C(=O)N[C@@H](CCC(=O)O)C(=O)N[C@@H](Cc1ccccc1)C(=O)N[C@@H](CC(C)C)C(=O)N[C@@H](Cc1c[nH]cn1)C(=O)N1CCC[C@H]1C(=O)N[C@@H](CO)C(=O)N[C@@H](CCCCN)C(=O)N[C@H](C(=O)N[C@@H](CC(=O)O)C(=O)N[C@@H](CC(C)C)C(=O)N1CCC[C@H]1C(=O)N[C@@H](CCCNC(=N)N)C(=O)O)C(C)C [SOR-C27] (H-EGKLSSNDTEGGLCKEFLHPSKVDLPR-OH)
- increase in cell death compared to PBS treatment ([2]; 1 mM, 72-hour incubation): ~2 fold
- induction of cell death compared to PBS ([2]; 1 mM, 72 hours, p<0.05): significantly induced cell death
- number of dead cells ([2]; 1 mM, 72 hours, trypan blue exclusion): 2.3×10^4 /well
- induction of cell death compared to PBS ([2]; 10 or 100 μM, 72 hours): no significant difference in the numbers of dead cells; also recorded: did not have a significant effect
- effect on migration of HaCaT cells over the tested concentrations ([4]; 10, 100, 1000 μM): did not appear to exert a significant effect; also recorded: no significant visual difference; also recorded: had no clear effect on promoting migration
- EC50 [3]: 94.1 nM

Compound: CCCC(CCC)C(=O)O [Valproic acid, reference compound]
- effect on migration of HaCaT cells through the scratch (words) [4]: appeared to block the migration
- effect on migration of HaCaT cells through the scratch (words) ([4]; listed as valproic acid): did not appear to induce migration

Compound: N.N.N.N.N.N.N.N.N.N.N.N.N.N.[Cl-].[Cl-].[Cl-].[Cl-].[Cl-].[Cl-].[O-2].[O-2].[Ru+3].[Ru+3].[Ru+4] [Ruthenium red]
- effect on activation of TRPV3 channel by 2-APB ([3]; control inhibitor, 100 μM 2-APB): inhibited activation of the channel by 2-APB
